≈ marks a conversion by molar mass, not a printed value. Blank lines part the entries; values can stand above or below the molecule they belong to.
Experiments:
Glucocorticoid receptor [1] = biological target: T1, Glucocorticoid receptor (Homo sapiens, UniProt P04150); assay: Displacement of fluormone RED from human full length glucocorticoid receptor after 4 hrs by fluorescence polarization assay
T1 sequence (P04150 whole entry): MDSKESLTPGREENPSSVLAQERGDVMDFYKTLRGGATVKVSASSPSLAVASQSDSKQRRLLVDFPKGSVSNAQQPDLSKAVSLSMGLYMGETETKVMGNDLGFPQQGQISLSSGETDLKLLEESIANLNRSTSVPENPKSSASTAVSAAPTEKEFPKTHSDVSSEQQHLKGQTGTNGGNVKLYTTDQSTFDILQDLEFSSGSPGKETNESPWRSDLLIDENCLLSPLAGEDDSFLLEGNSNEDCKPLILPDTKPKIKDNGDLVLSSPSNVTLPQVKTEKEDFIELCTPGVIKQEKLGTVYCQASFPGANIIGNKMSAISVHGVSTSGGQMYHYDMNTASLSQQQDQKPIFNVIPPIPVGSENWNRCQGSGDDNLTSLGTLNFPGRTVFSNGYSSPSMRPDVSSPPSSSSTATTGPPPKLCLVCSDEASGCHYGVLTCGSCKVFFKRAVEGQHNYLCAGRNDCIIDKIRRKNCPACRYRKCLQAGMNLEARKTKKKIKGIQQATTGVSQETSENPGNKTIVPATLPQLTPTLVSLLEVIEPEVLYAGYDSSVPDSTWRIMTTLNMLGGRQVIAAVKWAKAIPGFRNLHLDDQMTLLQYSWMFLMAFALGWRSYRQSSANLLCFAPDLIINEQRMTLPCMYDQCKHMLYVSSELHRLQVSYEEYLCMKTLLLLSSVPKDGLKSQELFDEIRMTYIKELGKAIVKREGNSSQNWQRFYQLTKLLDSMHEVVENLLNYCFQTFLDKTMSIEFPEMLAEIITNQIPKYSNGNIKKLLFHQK

Glucocorticoid receptor [2] = biological target: T1, Glucocorticoid receptor; assay: Antagonist activity at glucocorticoid receptor (unknown origin) expressed in human ChaGoK1 cells assessed as inhibition of dexamethasone induced transactivation incubated for 24 hrs by beta-galactosidase reporter gene assay; type: cell-based
[3] = Aqueous solubility of the compound; type: physicochemical; details: aqueous; read-out: solubility
Hepatocyte = assay: Stability in rat hepatocytes; type: ADME, cell-based
Glucocorticoid receptor [4] = biological target: T1, Glucocorticoid receptor; assay: Transactivation of GR in cryopreserved human primary hepatocytes assessed as upregulation of TAT mRNA expression level up to 1 uM after 18 hrs by RT-qPCR analysis
Glucocorticoid receptor [5] = biological target: T1, Glucocorticoid receptor
Description: Transactivation activity at glucocorticoid receptor (unknown origin) expressed in human ChaGoK1 cells incubated for 24 hrs by beta-galactosidase reporter gene assay

Glucocorticoid receptor [6] = biological target: T1, Glucocorticoid receptor; remark: listed apart in the source
Description: Transrepression activity at glucocorticoid receptor (unknown origin) expressed in human ChaGoK1 cells assessed as inhibition of PMA-stimulated gene expression incubated for 24 hrs by beta-galactosidase reporter gene assay

Glucocorticoid receptor [7] = biological target: T1, Glucocorticoid receptor; remark: listed apart in the source
Description: (§1) Transrepression of GR in human whole blood assessed as inhibition of LPS-induced TNF-alpha release preincubated for 45 mins followed by LPS addition after 18 hrs by AlphaLISA method

[8] = biological target: T2, Glucocorticoid receptor (Homo sapiens) (UniProt P04150)
T2 sequence (whole entry): T1 sequence (P04150 whole entry)
Description: as §1

[9] = biological target: T2, Glucocorticoid receptor (Homo sapiens); remark: listed apart in the source
Description: Transrepression of GR in cryopreserved human fetal osteoblasts assessed as inhibition of OPG mRNA expression after 4 hrs by RT-qPCR analysis

Glucocorticoid receptor [10] = biological target: T1, Glucocorticoid receptor; details: blood
Description: Therapeutic index, ratio of fIC20 for transrepression of GR in cryopreserved human fetal osteoblasts assessed as inhibition of OPG mRNA expression to fIC30 for transrepression of GR in human whole blood assessed as inhibition of LPS-induced TNF-alpha release

[11] = Drug metabolism in human hepatocytes assessed as N-((1R,2S)-1-(3-chloro-4-cyanophenoxy)-1-(6-hydroxypyridin-3-yl)propan-2-yl)-2,2-difluoropropanamide formation; type: ADME, cell-based, Hepatocyte
[12] = Drug metabolism in rat hepatocytes assessed as N-((1R,2S)-1-(3-chloro-4-cyanophenoxy)-1-(6-hydroxypyridin-3-yl)propan-2-yl)-2,2-difluoropropanamide formation; type: ADME, cell-based, Hepatocyte
[13] = biological target: T3, Mineralocorticoid receptor (Homo sapiens, UniProt P08235); assay: Displacement of [3H]-aldosterone from human mineralocorticoid receptor LBD (729 to 984 residues) after 1 hr by scintillation proximity assay
T3 sequence (P08235 whole entry): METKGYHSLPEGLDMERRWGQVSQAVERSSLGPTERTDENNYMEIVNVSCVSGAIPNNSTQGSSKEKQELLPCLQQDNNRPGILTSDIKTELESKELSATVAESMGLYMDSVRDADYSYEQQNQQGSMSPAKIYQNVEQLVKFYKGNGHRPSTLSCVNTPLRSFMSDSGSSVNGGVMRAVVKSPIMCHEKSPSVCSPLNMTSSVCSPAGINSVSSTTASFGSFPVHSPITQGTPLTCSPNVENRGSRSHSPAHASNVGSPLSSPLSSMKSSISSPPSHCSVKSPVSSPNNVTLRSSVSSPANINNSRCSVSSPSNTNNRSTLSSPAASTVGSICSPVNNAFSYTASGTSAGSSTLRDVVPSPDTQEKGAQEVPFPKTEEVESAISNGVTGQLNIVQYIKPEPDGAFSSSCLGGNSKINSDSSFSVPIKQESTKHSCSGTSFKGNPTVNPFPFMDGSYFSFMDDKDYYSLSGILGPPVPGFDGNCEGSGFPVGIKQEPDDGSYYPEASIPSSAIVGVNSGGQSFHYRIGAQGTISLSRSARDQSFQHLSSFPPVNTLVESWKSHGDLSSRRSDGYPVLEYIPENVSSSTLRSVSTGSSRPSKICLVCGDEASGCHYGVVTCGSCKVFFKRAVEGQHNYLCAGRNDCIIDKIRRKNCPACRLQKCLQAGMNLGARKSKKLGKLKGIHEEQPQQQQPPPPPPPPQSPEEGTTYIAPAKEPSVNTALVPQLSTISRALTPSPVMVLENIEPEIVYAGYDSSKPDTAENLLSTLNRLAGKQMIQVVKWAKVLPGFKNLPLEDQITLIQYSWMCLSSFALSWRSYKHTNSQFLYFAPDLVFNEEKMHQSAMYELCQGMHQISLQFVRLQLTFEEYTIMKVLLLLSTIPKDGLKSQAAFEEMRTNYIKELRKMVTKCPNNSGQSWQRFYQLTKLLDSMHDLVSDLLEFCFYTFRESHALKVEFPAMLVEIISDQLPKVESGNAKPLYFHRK

Estrogen receptor = biological target: T4, Estrogen receptor (Homo sapiens, UniProt P03372); assay: Binding affinity to human ERalpha expressed in Sf9 cells by fluoligand binding-based fluorescence polarization method
T4 sequence (P03372 whole entry): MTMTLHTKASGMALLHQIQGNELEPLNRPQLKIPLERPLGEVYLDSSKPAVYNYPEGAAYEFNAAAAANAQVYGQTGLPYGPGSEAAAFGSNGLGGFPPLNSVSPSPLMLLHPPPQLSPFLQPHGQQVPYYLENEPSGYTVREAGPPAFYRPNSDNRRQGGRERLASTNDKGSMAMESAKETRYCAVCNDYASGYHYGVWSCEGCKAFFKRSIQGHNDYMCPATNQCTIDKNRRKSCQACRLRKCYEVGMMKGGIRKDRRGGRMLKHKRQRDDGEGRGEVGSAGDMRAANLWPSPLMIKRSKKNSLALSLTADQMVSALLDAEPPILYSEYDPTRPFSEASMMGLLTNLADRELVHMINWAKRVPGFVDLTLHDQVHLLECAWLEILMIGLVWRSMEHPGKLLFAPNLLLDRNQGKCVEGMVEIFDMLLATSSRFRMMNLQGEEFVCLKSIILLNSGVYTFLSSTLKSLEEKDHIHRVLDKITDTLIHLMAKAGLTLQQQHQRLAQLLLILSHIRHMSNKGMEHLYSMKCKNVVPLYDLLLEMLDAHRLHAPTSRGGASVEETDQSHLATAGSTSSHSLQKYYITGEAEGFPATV

Estrogen receptor beta = Estrogen receptor beta (Homo sapiens, UniProt Q92731); assay: Binding affinity to human ERbeta expressed in Sf9 cells by fluoligand binding-based fluorescence polarization method
[14] = Tmax in Han-Wistar rat at 3.5 mg/kg, po; type: ADME, organism-based; details: in vivo
Rattus norvegicus [15] = assay: Dose normalized Cmax in Han-Wistar rat at 3.5 mg/kg, po; type: ADME, organism-based; details: in vivo
[16] = Terminal half life in Han-Wistar rat at 0.9 mg/kg, iv; type: ADME, organism-based; details: in vivo, read-out: beta t1/2 (converted)
[17] = Terminal half life in Han-Wistar rat at 3.5 mg/kg, po; type: ADME, organism-based; details: in vivo, read-out: beta t1/2 (converted)
Rattus norvegicus [18] = assay: Dose normalized AUC (0 to infinity) in Han-Wistar rat at 3.5 mg/kg, po; type: ADME, organism-based; details: in vivo
[19] = Clearance in Han-Wistar rat at 0.9 mg/kg, iv; type: ADME, organism-based; details: in vivo
[20] = Volume of distribution at steady state in Han-Wistar rat at 0.9 mg/kg, iv; type: ADME, organism-based; details: in vivo, read-out: Vdss
Rattus norvegicus [21] = assay: Antiinflammatory activity in streptococcal cell wall reactivation Lewis rat model assessed as reduction of joint swelling at 5 mg/kg administered once daily for 8 days by oral gavage starting 1 day prior to streptococcal cell wall challenge measured during 6 days post challenge relative to control; type: functional; design: scale not given: the % may be the effect or the level left
Rattus norvegicus [22] = assay: Antiinflammatory activity in streptococcal cell wall reactivation Lewis rat model assessed as reduction of joint swelling at 20 mg/kg administered once daily for 8 days by oral gavage starting 1 day prior to streptococcal cell wall challenge measured during 6 days post challenge relative to control; type: functional; design: scale not given: the % may be the effect or the level left
Glucocorticoid receptor [23] = biological target: T1, Glucocorticoid receptor; details: hepatocytes, 18 h
Description: Transactivation of GR in cryopreserved human primary hepatocytes assessed as upregulation of TAT mRNA expression level after 18 hrs by RT-qPCR analysis

[24] = Drug metabolism in rat hepatocytes treated with N-((1R,2S)-1-(3-chloro-4-cyanophenoxy)-1-(6-methoxypyridin-3-yl)propan-2-yl)-2,2-difluoropropanamide; type: ADME, cell-based, Hepatocyte
[25] = Drug metabolism in human hepatocytes treated with N-((1R,2S)-1-(3-chloro-4-cyanophenoxy)-1-(6-methoxypyridin-3-yl)propan-2-yl)-2,2-difluoropropanamide; type: ADME, cell-based, Hepatocyte

Sequence of Estrogen receptor beta (Q92731 whole entry): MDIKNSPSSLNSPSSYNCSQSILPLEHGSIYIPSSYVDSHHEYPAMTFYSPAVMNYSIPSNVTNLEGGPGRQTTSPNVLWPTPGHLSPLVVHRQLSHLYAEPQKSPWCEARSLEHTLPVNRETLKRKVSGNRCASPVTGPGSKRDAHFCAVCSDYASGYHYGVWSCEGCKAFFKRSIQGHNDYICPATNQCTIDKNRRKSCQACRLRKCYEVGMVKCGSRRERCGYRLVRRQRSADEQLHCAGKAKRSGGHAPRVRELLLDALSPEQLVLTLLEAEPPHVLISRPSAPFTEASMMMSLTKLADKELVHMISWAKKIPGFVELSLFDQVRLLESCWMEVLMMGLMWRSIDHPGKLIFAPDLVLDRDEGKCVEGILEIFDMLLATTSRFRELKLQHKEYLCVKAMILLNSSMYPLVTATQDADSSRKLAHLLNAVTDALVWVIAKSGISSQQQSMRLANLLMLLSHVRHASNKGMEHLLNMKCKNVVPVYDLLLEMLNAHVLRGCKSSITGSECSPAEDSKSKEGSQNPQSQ

IC50 (Glucocorticoid receptor [1]): 16 nM
IC50 (Glucocorticoid receptor [2]): 270 nM
solubility [3]: 0.9 µM (≈ 0.484 µg/mL)
Stability (Hepatocyte): Stable
Activity (Glucocorticoid receptor [4]): Not Active
EC50 (Glucocorticoid receptor [5]): 3.5 nM
IC50 (Glucocorticoid receptor [6]): 1.6 nM
IC50 (Glucocorticoid receptor [7]): 180 nM
fIC30 [8]: 0.53 nM
fIC20 [9]: 0.04 nM
TI (Glucocorticoid receptor [10]): 0.076
SMILES: Cc1nnc(C(=O)N[C@@H](C(C)O)[C@H](Oc2ccc3c(cnn3-c3ccc(F)cc3)c2)c2cc(F)cc(F)c2)o1 (single isomer, unassigned)

IC50 (Glucocorticoid receptor [1]): < 4 nM
Drug metabolism [11]: Metabolite_Detected
solubility [3]: 100 µM (≈ 41 µg/mL)
Drug metabolism [12]: Metabolite_Detected
EC50 (Glucocorticoid receptor [5]): 33 nM
IC50 (Glucocorticoid receptor [6]): 9.3 nM
SMILES: COc1ccc([C@@H](Oc2ccc(C#N)c(Cl)c2)[C@H](C)NC(=O)C(C)(F)F)cn1

solubility [3]: 310 µM (≈ 112 µg/mL)
IC50 [13]: 11 nM
IC50 (Estrogen receptor): > 100000 nM
IC50 (Estrogen receptor beta): > 100000 nM
Tmax [14]: 16.8 min
Cmax/dose (Rattus norvegicus [15]): 100 nM
half-life [16]: 24 min
half-life [17]: 150 min
AUC/dose (Rattus norvegicus [18]): 0.094 µM·h
clearance [19]: 90 mL/min/kg
Vd [20]: 1.2 L/kg
fEC50 (Glucocorticoid receptor [23]): 24 nM
fIC20 [9]: 0.88 nM
SMILES: C[C@]12C=CC(=O)C=C1CC[C@@H]1[C@@H]2[C@@H](O)C[C@@]2(C)[C@H]1CC[C@]2(O)C(=O)CO [PREDNISOLONE]
Activity (Rattus norvegicus [21]): 59%
Activity (Rattus norvegicus [22]): 73%

Drug metabolism [24]: Metabolite_Detected
Drug metabolism [25]: Metabolite_Detected
SMILES: C[C@H](NC(=O)C(C)(F)F)[C@H](Oc1ccc(C#N)c(Cl)c1)c1ccc(O)nc1
